pEC50, pIC50: −log10 of the molar value. ≈ marks a conversion by molar mass, not a printed value.
Experiments:
Leishmania donovani [1] = assay: Antileishmanial activity against promastigote form of wild-type Leishmania donovani MHOM/80/IN/Dd8 assessed as inhibition of parasite growth incubated for 48 hrs by MTT assay; assay type: functional, organism-based; conditions: MHOM/80/IN/Dd8, 48 h
Leishmania donovani [2] = assay: Antileishmanial activity against Leishmania donovani Bob intracellular amastigotes assessed as parasite growth inhibition incubated for 72 hrs by LDH assay; assay type: functional, organism-based
Leishmania major [3] = assay: Antileishmanial activity against Leishmania major JISH118 promastigote infected in human THP-1 cells assessed as parasite growth inhibition measured after 48 hrs by Giemsa staining based analysis; assay type: functional, organism-based; conditions: JISH118, THP-1, 48 h
Leishmania braziliensis [4] = assay: Antileishmanial activity against promastigote form of Leishmania braziliensis MHOM/BR/75/M2904 promastigotes assessed as parasite growth inhibition incubated for 48 hrs by resazurin assay; assay type: functional, organism-based; conditions: MHOM/BR/75/M2904, 48 h
Leishmania amazonensis [5] = assay: Antileishmanial activity against promastigote form of Leishmania amazonensis (MHOM/BR/71973/M2269) assessed as parasite growth inhibition measured after 72 hrs by Neubauer counting chamber based analysis; assay type: functional, organism-based; conditions: MHOM/BR/71973/M2269, 72 h
Leishmania amazonensis [6] = assay: Antileishmanial activity against Leishmania amazonensis (MHOM/BR/71973/M2269) intracellular amastigotes infected in mouse peritoneal macrophages assessed as parasite growth inhibition incubated for 24 hrs by Giemsa staining based light microscopy analysis; assay type: functional, organism-based; conditions: MHOM/BR/71973/M2269, Peritoneal macrophage
[7] = Cytotoxicity against mouse J774.A1 cells assessed as reduction in cell viability incubated for 48 hrs by MTT assay; assay type: toxicity, cell-based
Leishmania donovani [8] = assay: Antileishmanial activity against promastigote form of Leishmania donovani MHOM/IN/80/Dd8 transfected with firefly luciferase gene assessed as parasite growth inhibition incubated for 96 hrs by Steady Glo reagent based luminescence assay; assay type: functional, organism-based; conditions: MHOM/IN/80/Dd8, 96 h
[9] = target: Trypanothione reductase (Leishmania donovani) (UniProt P39050); assay: Inhibition of Leishmania donovani trypanothione reductase expressed in Escherichia coli BL21(DE3) using TS2 and NADPH as substrate at 100 uM preincubated for 5 mins followed by substrate addition by DTNB-reagent based spectrophotometric method
Sequence of Trypanothione reductase (Leishmania donovani) (P39050 whole entry): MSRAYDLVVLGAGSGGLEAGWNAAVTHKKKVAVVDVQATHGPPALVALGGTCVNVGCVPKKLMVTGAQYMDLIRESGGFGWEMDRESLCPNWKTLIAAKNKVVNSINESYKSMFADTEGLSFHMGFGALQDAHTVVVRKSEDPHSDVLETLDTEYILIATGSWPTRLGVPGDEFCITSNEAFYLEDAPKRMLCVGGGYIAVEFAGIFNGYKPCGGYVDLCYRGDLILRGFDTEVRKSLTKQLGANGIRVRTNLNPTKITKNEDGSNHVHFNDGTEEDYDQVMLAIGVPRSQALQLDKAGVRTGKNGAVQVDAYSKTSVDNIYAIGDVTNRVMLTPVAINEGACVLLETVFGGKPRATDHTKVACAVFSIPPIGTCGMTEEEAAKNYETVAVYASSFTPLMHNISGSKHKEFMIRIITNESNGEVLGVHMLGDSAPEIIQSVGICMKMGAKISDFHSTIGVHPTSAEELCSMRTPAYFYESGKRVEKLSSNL

Leishmania mexicana [10] = assay: Antileishmanial activity against promastigote form of Leishmania mexicana assessed as inhibition of parasite growth measured for 10 days by Neubauer counting chamber based analysis; assay type: functional, organism-based; conditions: 240 h
Leishmania amazonensis [11] = assay: Antileishmanial activity against promastigote form of Leishmania amazonensis MHOM/BR/77/LTB0016 incubated for 24 hrs by MTT assay; assay type: functional, organism-based; conditions: MHOM/BR/77/LTB0016, 24 h
Leishmania mexicana [12] = assay: Inhibition of recombinant Leishmania mexicana CPB2.8 delta CTE at 20 uM
Leishmania amazonensis [13] = assay: Antileishmanial activity against Leishmania amazonensis IFLA/Br/67/PH8 intracellular amastigotes infected in BALB/c mouse peritoneal macrophages assessed as reduction in intracellular amastigotes incubated for 72 hrs by fluorometric analysis; assay type: functional, organism-based; conditions: IFLA/Br/67/PH8, 72 h
Leishmania donovani [14] = assay: Antileishmanial activity against promastigote form of Leishmania donovani MHOM/IN/83/AG83 assessed as inhibition of promastigote growth incubated for 48 hrs by MTT reduction assay; assay type: functional, organism-based; conditions: MHOM/IN/83/AG83, 48 h
Leishmania donovani [15] = assay: Antileishmanial activity against Leishmania donovani MHOM/IN/83/AG83 intracellular amastigotes infected in mouse RAW264.7 cells assessed as parasite growth inhibition incubated for 48 hrs by Giemsa staining based microscopic analysis; assay type: functional, organism-based; conditions: MHOM/IN/83/AG83, RAW264.7, 48 h
Leishmania panamensis [16] = assay: Antileishmanial activity against Leishmania panamensis MHOM/CO/87/UA140pIR-GFP intracellular amastigotes infected in human U-937 cells assessed as parasite growth inhibition measured after 72 hrs by flow cytometry analysis; assay type: functional, organism-based; conditions: U-937, 72 h
Leishmania infantum [17] = assay: Antileishmanial activity against promastigote form of Leishmania infantum MHOM/BR/70/BH46 promastigote assessed as parasite growth inhibition incubated for 72 hrs by Neubauer chamber analysis; assay type: functional, organism-based; conditions: MHOM/BR/70/BH46, 72 h
[18] = Selectivity index, ratio of CC50 for cytotoxicity against human THP1 cells to IC50 for antileishmanial activity against promastigote form of Leishmania donovani; assay type: toxicity, cell-based; conditions: read-out: Ratio CC50/IC50
Leishmania donovani [19] = assay: Antileishmanial activity against promastigote form of Leishmania donovani assessed as inhibition of promastigote growth incubated for 48 hrs by Alamar blue assay; assay type: functional, organism-based
[20] = test system: Mycobacterium tuberculosis; assay: Antimycobacterial activity against Mycobacterium tuberculosis H37Rv ATCC 27294 assessed as inhibition of bacterial growth and measured at 7 to 14 day by broth microdilution assay; assay type: functional; conditions: time 7-14 day
Leishmania major [21] = assay: Antileishmanial activity against Leishmania major (MHOM/IR/-173) promastigotes assessed as inhibition of parasite growth incubated for 72 hrs by alamar blue staining based analysis; assay type: functional, organism-based; conditions: MHOM/IR/-173, 72 h
Leishmania amazonensis [22] = assay: Antileishmanial activity against promastigote form of Leishmania amazonensis (MHOM/BR/75/Josefa) assessed as inhibition of parasite growth measured after 72 hrs by Neubauer counting chamber based analysis; assay type: functional, organism-based
Trypanosoma cruzi = assay: Antitrypanosomal activity against Trypanosoma cruzi Tulahuen intracellular amastigotes transfected with beta-galactosidase infected in human U-937 cells assessed as viability of intracellular amastigotes measured after 72 hrs by spectrophotometry; assay type: functional, organism-based; conditions: U-937, 72 h
[23] = Cytotoxicity against BALB/c mouse peritoneal macrophages assessed as reduction in cell viability measured after 48 hrs by luminescence based CellTiter-Glo assay; assay type: toxicity, Peritoneal macrophage
Leishmania infantum [24] = assay: Antileishmanial activity against promastigote form of Leishmania infantum BH 46 assessed as parasite growth inhibition measured after 48 hrs by Celltiter-Glo assay; assay type: functional, organism-based; conditions: BH 46, 48 h
Leishmania panamensis [25] = assay: Antileishmanial activity against promastigote form of Leishmania panamensis MHOM/CO/87/UA140-EGFP infected in human U-937 cells assessed as parasite growth inhibition measured after 72 hrs by flow cytometer analysis; assay type: functional, organism-based; conditions: U-937, 72 h
Leishmania braziliensis [26] = assay: Antileishmanial activity against promastigote form of Leishmania braziliensis MHOM/CO/88/301-EGFP infected in human U-937 cells assessed as parasite growth inhibition measured after 72 hrs by flow cytometer analysis; assay type: functional, organism-based; conditions: U-937, 72 h
Leishmania panamensis [27] = assay: Antileishmanial activity against Leishmania panamensis MHOM/CO/87/UA140-EGFP intracellular amastigotes infected in U-937 cells assessed as parasite growth inhibition measured after 72 hrs by flow cytometry analysis; assay type: functional, organism-based; conditions: U-937, 72 h
U-937 = assay: Cytotoxicity against human U-937 cells assessed as reduction in cell viability measured after 72 hrs by MTT assay; assay type: functional; conditions: read-out: LC50 (the source's name)

With `O=[N+]([O-])c1ccc(COc2ccc(-c3nc4ccccc4[nH]3)cc2)cc1` as the compound, how does the pIC50 (Leishmania donovani [1]) read?
The pIC50 was 4.17.

With `COC(=O)C(N)Cc1c[nH]c2ccccc12` (stereo not given) as the compound, how does the pIC50 (Leishmania donovani [2]) read?
Its pIC50 is 4.74.

With `c1cncc(Nc2nnc(-c3ccc(C(c4c[nH]c5ccccc45)c4c[nH]c5ccccc45)cc3)s2)c1` as the compound, how does the pIC50 (Leishmania major [3]) read?
Its pIC50 is 6.15.

With `CC(C)=CCC1=C(OC(=O)CCc2cn(-c3ccc(C)cc3)nn2)C(=O)c2ccccc2C1=O` as the compound, how does the pIC50 (Leishmania braziliensis [4]) read?
The pIC50 was 4.80.

With `CC(C)COc1ccc2c(-c3ccccc3)cc(=O)oc2c1` as the compound, how does the pIC50 (Leishmania amazonensis [5]) read?
The pIC50 was 4.67.

And the pIC50 (Leishmania amazonensis [6])?
Its pIC50 is 4.24.

With `O=C1c2ccccc2C(=O)N1CCn1cc(-c2ccccc2)nn1` as the compound, how does the CC50 at 48 h [7] read?
Its CC50 at 48 h is > 500 µM.

What does the source list for `C=C(C1c2[nH]c3ccccc3c2CCN1C(=O)OC(C)(C)C)N(CC(=O)NC(C)(C)C)Cc1ccc(C)cc1` (stereo not given)?
pIC50 (Leishmania donovani [8]): 7.22; inhibition [9]: 53%

With `Fc1cccc(Nc2cnc3ccccc3c2)c1` as the compound, how does the pIC50 (Leishmania mexicana [10]) read?
The pIC50 was 4.38.

With `N=C(N)c1ccc(OCCCCCOc2ccc(C(=N)N)cc2)cc1` [PENTAMIDINE] as the compound, how does the pIC50 (Leishmania amazonensis [11]) read?
The pIC50 was 4.91.

With `COC(=O)c1ccc(NC(=O)CSc2nc3ccccc3n2S(=O)(=O)c2cc(C)cc(C)c2)cc1` as the compound, how does the inhibition (Leishmania mexicana [12]) read?
Its inhibition is 97%.

With `CCCCCCCCCCn1cc(COCC2CO2)[n+](C)n1` (stereo not given) as the compound, how does the pIC50 (Leishmania amazonensis [13]) read?
The pIC50 was 5.12.

Which IC50 (Leishmania donovani [14]) does the source give for `Cc1ccc(-c2nn(-c3ccccc3)cc2/C=C/c2nnc(-c3sc4ccccc4c3Cl)o2)cc1` here?
Its IC50 is 19 µg/mL (≈ 38.4 µM).

And the IC50 (Leishmania donovani [15])?
Its IC50 is 73.1 µg/mL (≈ 148 µM).

For `O=c1ccoc2cc(OCCCCCCCCCOc3cccc4cccnc34)ccc12`, which EC50 (Leishmania panamensis [16]) is on record?
The EC50 was 6.11 µg/mL.

With `S=C(N/N=C/c1c[nH]c2c(Br)cc(Br)cc12)Nc1ccccc1` as the compound, how does the pIC50 (Leishmania infantum [17]) read?
Its pIC50 is 5.25.

With `CC(C)CCN1C(=O)C=CC1=O` as the compound, how does the selectivity ratio [18] read?
Its selectivity ratio is > 781.

What about the IC50 (Leishmania donovani [19]) of the same compound?
The IC50 was < 0.0128 µg/mL.

For `O=c1ccoc2cc(OCCCCOc3cccc4ccccc34)ccc12`, which EC50 (Leishmania panamensis [16]) is on record?
Its EC50 is 6.11 µg/mL.

What does the source list for `OCc1cn(-c2cc(O)ccc2O)nn1`?
MIC90 [20]: 16 µM (≈ 3.32 µg/mL); pIC50 (Leishmania major [21]): 4.64

With `CC1=CC[C@@H](C(C)(C)NC(=S)N/N=C/c2cccc([N+](=O)[O-])c2)CC1` as the compound, how does the pIC50 (Leishmania amazonensis [22]) read?
The pIC50 was 5.62.

With `Cn1cc[n+](CCCCCCCCOc2ccc(C(=O)/C=C/c3ccco3)cc2)c1` as the compound, how does the pEC50 (Leishmania panamensis [16]) read?
The pEC50 was 5.08.

With `CCCCC(CCCCCCC[n+]1ccn(C)c1)Oc1ccc(C(=O)/C=C/c2ccco2)cc1` (stereo not given) as the compound, how does the pEC50 (Leishmania panamensis [16]) read?
The pEC50 was 5.67.

What about the pEC50 (Trypanosoma cruzi) of the same compound?
The pEC50 was 6.14.

For `C/C(=N\Nc1nc(-c2ccc(Br)cc2)cs1)c1ccccn1`, which CC50 at 48 h [23] is on record?
Its CC50 at 48 h is 2.95 µM.

What about the pIC50 (Leishmania infantum [24]) of the same compound?
Its pIC50 is 5.51.

With `Cc1cc(C)cc(S(=O)(=O)n2c(SCC(=O)Nc3ccccc3)nc3ccccc32)c1` as the compound, how does the inhibition (Leishmania mexicana [12]) read?
Its inhibition is 97%.

For `O=C(N/N=C1\CCOc2ccccc21)c1ccccc1`, which EC50 (Leishmania panamensis [25]) is on record?
Its EC50 is 20.1 µg/mL (≈ 75.5 µM).

And the EC50 (Leishmania braziliensis [26])?
The EC50 was 12.1 µg/mL (≈ 45.4 µM).

Which IC50 (Leishmania donovani [14]) does the source give for `COc1cc(-c2nnc(/C=C/c3cn(-c4ccccc4)nc3-c3ccccc3)o2)cc(OC)c1OC` here?
The IC50 was 33.3 µg/mL (≈ 69.3 µM).

What about the IC50 (Leishmania donovani [15]) of the same compound?
The IC50 was 44.2 µg/mL (≈ 92 µM).

With `O=C1C=C(c2ccc(F)cc2)S(=O)(=O)c2ccccc21` as the compound, how does the pEC50 (Leishmania panamensis [27]) read?
Its pEC50 is 5.17.

And the CC50 (U-937)?
The CC50 was 694 µM.

Reference: ChEMBL document CHEMBL5096192, “Recent advancements in anti-leishmanial research: Synthetic strategies and structural activity relationships” (Eur J Med Chem, 2021)
